This note sets out measurements from article PMC7997578, “Design, Synthesis, Dynamic Docking, Biochemical Characterization, and in Vivo Pharmacokinetics Studies of Novel Topoisomerase II Poisons with Promising Antiproliferative Activity” (Journal of Medicinal Chemistry, 2020).

Data set [1] is described as follows: plasma protein binding (rapid equilibrium dialysis), human. The class given is in vitro ADME. The note with it: pH 7.4. As for the experimental part:
(§1) 3. Aqueous t herm odynam ic solu bili ty
(§2) The thermodynamic solubility of 3f was determined by addition of Phosphate Buffered Saline (PBS) at pH 7. 4 to an exces s of solid compound.
(§3) The assay was performed by incubation of an aliquot of 2. 5mg of test compound in 500µL of PBS at pH 7. 4. The suspension was shaken at 300 RPM for 24h at 25°C. At the end of the incubation period, the saturated solution was filtered and analyzed by UPLC/MS for the quantification of dissolved compound (in µM) by UV at a specific wavelength ( λmax of the test compound). The analyses were performed on a Waters ACQUITY UPLC/MS SQD system equipped with an ESI ion source. The analyses were run on an ACQUITY UPLC BEH C 18 column (50x2. 1mmI D, particle size 1. 7µm) with a VanGuard BEH C 18 pr e-column (5x2. 1mmID, particle size 1. 7µm), using H 2O + 0. 1% HCOOH (A) and CH 3CN + 0. 1% HCOOH (B) as mobile phase.
(§4) 4. Plasm a Protei n Bindi ng
(§5) The assay was conducted in triplicate in human and mouse plasma. An appropriate volume of plasma was spiked with a known amount of 10mM DMSO stock solution of the test compound, thus reaching the incubation concentrations of 0. 5, 1 and 5 µM. […] At this point, the supernatants were ready for injections in the UPLC -MS/ MS system. […] Plasma protein binding was calculated applying appropriate corrections to compensate for dilutions during sampling.
(In general: Equilibrium dialysis compares concentrations on both sides of a semipermeable membrane.)

Another data set has as its system A549 cells. Put plainly: cell viability MTT assay, A549. The class given is cell-based, human. The note with it: mean ± SD of two experiments, read-out: A549 antiproliferative activity IC50. As for the experimental part: (§6) The antiproliferative activity of all compounds was evaluated in (i) DU145, an androgen-independent prostate cancer cell line; (ii) HeLa, a cervical cancer cell line; and (iii) A549, a lung adenocarcinoma cell line (Table 1). […] Undoubtedly, this preliminary cytotoxicity data will need further characterization, also in relation to the in vitro activity of these compounds.
(§7) Human cancer cell lines A549 (lung adenocarcinoma, ATCC CCL-185), DU-145 (androgen-independent prostate cancer, ATCC HTB-81), and HeLa (cervical carcinoma, ATCC CCL-2) were obtained from ATCC. Cells were routinely grown in minimal essential medium containing Eagle’s salts and L-glutamine supplemented with 10% heat-inactivated FBS in a humidified atmosphere of 5% CO2 at 37 °C. To assess the antiproliferative activity of the compounds, cells were seeded at a density of 2500 cells/well (HeLa) or 5000 cells/well (A549, DU-145) in 96-well plates, and cell viability was measured using the MTT assay as described previously.[39] Values are reported as the mean ± SD of two independent experiments.

In the next data set the test system is DU145 cells. Put plainly: cell viability MTT assay, DU145. The following applies: mean ± SD of two experiments, read-out: DU145 antiproliferative activity IC50. The data set is classed as cell-based, human. As for the experimental part:
as §6, §7

A short description of data set [2]: plasma protein binding (rapid equilibrium dialysis), mouse. The data set is classed as in vitro ADME. The note with it: pH 7.4. As for the experimental part: as §1, §2, §3, §4, §5
For the next data set, the system named is HeLa cells. Put plainly: cell viability MTT assay, HeLa. The data set is classed as cell-based, human. The following applies: HeLa cervical cancer cells, mean ± SD of two experiments, read-out: HeLa antiproliferative activity IC50. As for the experimental part: as §6, §7
In general terms: Tetrazolium dyes change colour on reduction, which living cells bring about.

Molecules are shown by their SMILES. Like-named read-outs stand apart in the source and are kept apart here.

For orientation: fraction unbound means the share of the substance not bound to proteins or other matrix. Lower therefore signals extensive binding. Broadly, the IC50 is the concentration that inhibits the measured activity by half. Regarding `O=C(Nc1cccc(OC(F)(F)F)c1)c1c(O)n(-c2ccccc2)c(=S)n(-c2ccccc2)c1=O` [3f, 6-Hydroxy-4-oxo-1,3-diphenyl-2-thioxo-N-(3-(trifluoromethoxy)phenyl)-1,2,3,4-tetrahydropyrimidine-5-carboxamide], the fraction unbound at 3 h in data set [1] and in data set [2] was less than 0.01 throughout. For the same compound, the IC50 with A549 cells (A549 lung adenocarcinoma cells) is 3.1 ± 0.1 µM; in the data set on A549 cells (Homo sapiens, A549, A549 lung adenocarcinoma cells), less than 5 µM; in the data set on DU145 cells (DU145 prostate cancer cells), 4.7 ± 0.1 µM; with DU145 cells (Homo sapiens, DU-145, DU145 prostate cancer cells) it was less than 5 µM; in the data set on HeLa cells it was 3.8 ± 0.3 µM; in the data set with HeLa cells (Homo sapiens, HeLa) it was less than 5 µM.
